Where two headings read alike, the source gives them in different places.
Assays:
Type in all cases: cell-based
OR10/OR7 = OR10/OR7 (Anopheles gambiae, UniProt B5U0U7+Q7QCC7); test: Ca2+-imaging of stable HEK293T cell line OR10/OR7; conditions: for inhibition at 4 µM: HEK-293T, read-out: Percent Inhibition OR10 OR7; for IC50: Table B, read-out: IC50 OR10
Experimental: (§1) Stable cell lines OR1/OR7, OR2/OR7, OR8/OR7, OR10/OR7, OR28/OR7 and TRPM8 were generated from HEK293T cells. HEK293T-based cell lines were cultured in DMEM supplemented with these additional antibiotics: 6 μg/mL blasticidin and 1 μg/mL puromycin, with the exception of the TRPM8 cell lines, which was cultured in DMEM supplemented with 1 μg/mL puromycin.
After one day of incubation, the transfected cells were transferred into 10 cm dishes with DMEM containing antibiotics as follows: • 0.5 μg/mL of blasticidin for OR1/OR7, OR2/OR7, OR8/OR7, OR10/OR7, OR28/OR7 • 0.2 μg/mL of puromycin for TRPM8.
(§2) Stable cell lines were cultured in 10 cm dishes, and confluent cells (70-80%) were trypsinized. 10,000 cells/20 μL were transferred into each well of 384-well plates coated with poly-D-lysine, and cultured for 2 days. For Flip-In T-Rex cells (cell lines expressing Or47a/Or83b and 5HT3), 5 μL of tetracycline (5 μg/mL) were added 1 day before the assay. 20 μL of Ca-4 dye was loaded into each well for 1.5 hr at room temperature in the dark, and the dye-loaded plates were subjected to Ca^2+-imaging using a Hamamatsu FDSS6000 real time fluorescence plate reader. Odorant solutions (9× final concentration) were prepared by dissolving 1M stock solutions into Hank's Buffered Salt Solution (HBSS), and 30 μL of odor solution was transferred to each well in 384-well plates.
(§3) Compounds ([…] in DMSO) were stored in 384-well plates, and last two columns (32 wells total) contained only DMSO. 200 nL of small compounds were transferred into the odorant plates before the assay using the Perkin-Elmer Janus workstation. The odorant plates were spun down to remove air bubbles, and placed on the FDSS6000 plate loader, and 5 μL of odorant solution was applied to the cell plate on the FDSS6000. Ca^2+ increase was monitored with fluorescence at 525 nm by excitation at 485 nm.

OR28/OR7 = OR28/OR7 (Anopheles gambiae, UniProt A0A1S4GFY3+Q7QCC7); test: Ca2+-imaging of stable HEK293T cell line OR28/OR7; conditions: for inhibition at 4 µM: HEK-293T, read-out: Percent Inhibition OR28 OR7
Chain of OR28/OR7 (A0A1S4GFY3 entry or part of it): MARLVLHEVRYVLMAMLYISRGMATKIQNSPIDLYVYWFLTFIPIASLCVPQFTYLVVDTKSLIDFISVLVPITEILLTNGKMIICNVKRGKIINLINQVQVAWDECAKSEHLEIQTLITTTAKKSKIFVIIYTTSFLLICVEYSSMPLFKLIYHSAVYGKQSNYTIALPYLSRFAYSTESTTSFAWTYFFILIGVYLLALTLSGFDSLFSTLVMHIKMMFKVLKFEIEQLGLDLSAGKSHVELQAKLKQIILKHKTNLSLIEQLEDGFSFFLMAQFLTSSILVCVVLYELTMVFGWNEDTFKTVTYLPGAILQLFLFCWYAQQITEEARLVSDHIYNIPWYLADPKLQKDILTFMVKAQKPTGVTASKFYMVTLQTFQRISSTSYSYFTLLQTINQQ
Chain of OR28/OR7 (Q7QCC7 whole entry): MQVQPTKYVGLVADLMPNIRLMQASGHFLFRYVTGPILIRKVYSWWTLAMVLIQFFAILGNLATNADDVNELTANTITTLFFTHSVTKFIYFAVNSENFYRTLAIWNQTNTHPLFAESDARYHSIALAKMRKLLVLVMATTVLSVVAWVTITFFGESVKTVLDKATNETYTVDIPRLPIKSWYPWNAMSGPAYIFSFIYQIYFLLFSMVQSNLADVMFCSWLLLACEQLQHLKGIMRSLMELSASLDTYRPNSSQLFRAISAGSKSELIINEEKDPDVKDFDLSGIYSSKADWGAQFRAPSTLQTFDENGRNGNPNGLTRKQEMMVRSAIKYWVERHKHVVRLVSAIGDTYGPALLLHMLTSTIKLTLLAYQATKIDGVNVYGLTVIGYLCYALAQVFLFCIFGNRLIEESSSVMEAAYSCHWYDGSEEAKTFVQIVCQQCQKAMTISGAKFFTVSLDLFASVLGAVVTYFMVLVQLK
Experimental: (§4) Full-length cDNAs for mosquito (Anopheles gambiae) odorant receptor (OR1, OR2, OR7, OR8, OR28), and fly (Drosophila melanogaster) odorant receptor (Or47a, Or83b), mouse TRP channel (TRPM8), and mouse serotonin receptor (5HT3) were obtained and subcloned into mammalian expression vectors. The following mammalian expression vectors were used:
as §1
(§5) Cells were trypsinized and split into 35 mm dishes one day before transfection. Confluent cells (60-70%) in 35 mm dishes were transfected with 1 μg of insect OR(X) plasmids in pME18s-bla and 1 μg of OR7-pME18s-puro using lipofectamine 2000. For Anopheles odorant receptors, two plasmids were co-transfected into HEK cells: the ligand-specific receptor (OR1, OR2, OR8, OR28) and the corresponding olfactory co-receptor: OR7. Cell lines containing TRPM8 were transfected with single plasmid.
as §2, §3

TRP channel (TRPM8) = molecular target: T1, TRP channel (TRPM8) (Mus musculus, UniProt Q8R4D5); test: Ca2+-imaging of stable HEK293T cell line TRPM8; conditions: HEK-293T, read-out: Percent Inhibition TRPM8
T1 construct: Full-length cDNAs for mosquito (Anopheles gambiae) odorant receptor (OR1, OR2, OR7, OR8, OR28), and fly (Drosophila melanogaster) odorant receptor (Or47a, Or83b), mouse TRP channel (TRPM8); expressed in transfected cells
T1 sequence (Q8R4D5 whole entry): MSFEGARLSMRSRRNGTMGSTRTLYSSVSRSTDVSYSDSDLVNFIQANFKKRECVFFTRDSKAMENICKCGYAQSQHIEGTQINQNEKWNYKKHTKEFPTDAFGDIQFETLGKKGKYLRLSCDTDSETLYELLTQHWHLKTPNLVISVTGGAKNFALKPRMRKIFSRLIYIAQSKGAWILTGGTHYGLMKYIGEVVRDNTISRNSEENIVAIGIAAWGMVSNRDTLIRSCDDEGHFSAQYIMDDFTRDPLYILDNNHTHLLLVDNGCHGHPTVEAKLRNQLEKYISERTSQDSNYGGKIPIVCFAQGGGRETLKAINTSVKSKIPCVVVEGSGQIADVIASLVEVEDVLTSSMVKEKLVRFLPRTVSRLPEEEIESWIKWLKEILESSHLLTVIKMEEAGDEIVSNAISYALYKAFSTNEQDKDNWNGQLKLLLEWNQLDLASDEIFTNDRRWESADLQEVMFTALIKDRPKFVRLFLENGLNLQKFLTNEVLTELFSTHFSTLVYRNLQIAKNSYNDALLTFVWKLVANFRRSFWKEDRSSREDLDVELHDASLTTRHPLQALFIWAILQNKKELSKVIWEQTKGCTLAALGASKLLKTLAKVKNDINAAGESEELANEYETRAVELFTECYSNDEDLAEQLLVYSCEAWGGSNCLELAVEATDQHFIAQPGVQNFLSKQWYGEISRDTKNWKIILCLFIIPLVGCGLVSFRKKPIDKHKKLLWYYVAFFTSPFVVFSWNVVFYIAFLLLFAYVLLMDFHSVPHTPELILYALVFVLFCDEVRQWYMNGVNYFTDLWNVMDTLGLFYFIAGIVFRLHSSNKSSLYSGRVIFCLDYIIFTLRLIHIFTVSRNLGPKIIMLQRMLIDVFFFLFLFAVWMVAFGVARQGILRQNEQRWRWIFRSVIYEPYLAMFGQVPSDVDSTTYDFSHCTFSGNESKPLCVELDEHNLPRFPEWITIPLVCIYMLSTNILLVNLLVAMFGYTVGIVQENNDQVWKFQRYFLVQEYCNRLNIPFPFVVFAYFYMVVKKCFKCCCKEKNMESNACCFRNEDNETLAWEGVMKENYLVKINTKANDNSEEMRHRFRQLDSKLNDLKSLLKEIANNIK
Experimental: as §4, §1, §5, §2, §3

Chain of OR10/OR7 (Q7QCC7 whole entry): as the sequence (Q7QCC7 whole entry) above
Chain of OR10/OR7 (B5U0U7 entry or part of it): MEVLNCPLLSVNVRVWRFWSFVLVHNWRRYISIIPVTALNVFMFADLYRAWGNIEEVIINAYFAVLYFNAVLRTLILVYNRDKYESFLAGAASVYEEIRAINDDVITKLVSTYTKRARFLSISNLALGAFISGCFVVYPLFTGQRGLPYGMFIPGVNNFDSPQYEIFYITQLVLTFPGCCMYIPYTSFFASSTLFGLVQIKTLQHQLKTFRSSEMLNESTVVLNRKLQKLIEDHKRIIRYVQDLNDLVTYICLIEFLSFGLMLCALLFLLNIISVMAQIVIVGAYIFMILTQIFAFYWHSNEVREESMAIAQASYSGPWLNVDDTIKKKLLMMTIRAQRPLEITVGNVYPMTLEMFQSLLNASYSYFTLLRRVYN

Row | SMILES | inhibition at 4 µM (OR10/OR7) | IC50 (OR28/OR7) | inhibition at 4 µM (OR28/OR7) | inhibition at 4 µM (TRP channel (TRPM8)) | inhibition at 4 µM (OR10/OR7; compound applied at 4 μM) | IC50 (OR10/OR7) | inhibition at 4 µM (OR28/OR7; compound applied at 4 μM) | IC50 (OR28/OR7; Table B, read-out: IC50 OR28) | inhibition at 4 µM (TRP channel (TRPM8); compound applied at 4 μM)
1 | CCN(CC)C(=O)Oc1ccc2c(ccn2Cc2cccc(C)c2)c1NC(=O)CCCCC(=O)OC [RU-0075445] | < 25% | < 100 nM | > 75% | < 25% | – | – | – | – | –
2 | O=C(c1ccco1)N(Cc1nccn1Cc1c(F)cccc1Cl)C1CC1 [RU-0048046] | – | – | – | – | 51 to 74% | < 100 nM | > 75% | < 100 nM | < 25%
3 | C=CCN(Cc1nccn1Cc1ccccc1C)C(=O)CC(C)C [RU-0058298] | – | – | – | – | > 75% | < 100 nM | > 75% | < 100 nM | 26 to 50%
4 | Cc1nn(-c2ccc(Cl)cc2)c(C)c1C(=O)NCc1ccccn1 [RU-0048608] | – | – | – | – | 51 to 74% | > 1000 nM | > 75% | < 100 nM | < 25%
5 | O=C(c1cccc(F)c1)N(Cc1c(-c2ccccc2)noc1N1CCCC1)CC1CCCO1 (centres unmarked) [RU-0037434] | – | – | – | – | 26 to 50% | – | > 75% | < 100 nM | < 25%
6 | Cc1ccccc1C(=O)N[C@@H]1CCCCC1NC(=O)C1CCN(C(=O)c2ccc(C(C)(C)C)cc2)CC1 (some centres unmarked) [RU-0045678] | – | – | – | – | > 75% | > 1000 nM | > 75% | < 100 nM | < 25%
7 | Cc1ccccc1C(=O)N[C@@H]1CCCCC1NC(=O)C1CCN(C(=O)c2cc(C(F)(F)F)cc(C(F)(F)F)c2)CC1 (some centres unmarked) [RU-0045778] | – | – | – | – | < 25% | – | 51 to 74% | < 100 nM | < 25%
8 | COCCCN(Cc1c(-c2ccccc2)noc1N1CCCC1)C(=O)c1ccc(F)cc1 [RU-0037386] | – | – | – | – | 26 to 50% | – | > 75% | < 100 nM | < 25%
9 | Cc1ccccc1C(=O)N[C@@H]1CCCCC1NC(=O)C1CCCN(S(=O)(=O)c2cc(Cl)ccc2Cl)C1 (some centres unmarked) [RU-0045691] | – | – | – | – | 26 to 50% | – | > 75% | < 100 nM | < 25%
10 | CCOC(=O)c1c(NC(C)=O)c(-c2ccc(OC)cc2)cn1Cc1ccccc1 [RU-0077733] | – | – | – | – | 26 to 50% | – | 51 to 74% | < 100 nM | < 25%
11 | CCN(CC)c1onc(-c2ccccc2)c1CN(CC1CCCO1)C(=O)c1ccc2c(c1)OCO2 (centres unmarked) [RU-0036875] | – | – | – | – | 26 to 50% | – | > 75% | < 100 nM | < 25%
12 | O=C(Cc1cccc(F)c1)N1CCOC(COCc2c(Cl)cccc2Cl)C1 (centres unmarked) [RU-0050398] | – | – | – | – | < 25% | – | > 75% | 100 to 1000 nM | < 25%
13 | O=C(CCC1CCN(C(=O)c2cccc(-n3cccn3)c2)CC1)Nc1ccccc1 [RU-0032465] | – | – | – | – | < 25% | – | > 75% | < 100 nM | 26 to 50%
14 | O=C(c1ccco1)N(Cc1ccco1)Cc1nccn1Cc1ccccc1F [RU-0047694] | – | – | – | – | 51 to 74% | < 100 nM | > 75% | < 100 nM | < 25%
15 | Cc1cccc(Cn2ccnc2CN(C(=O)c2ccccc2F)C2CCCCC2)c1 [RU-0047851] | – | – | – | – | > 75% | < 100 nM | 26 to 50% | < 100 nM | < 25%
16 | COCCCN(Cc1c(-c2ccccc2)noc1N(C)C(C)C)C(=O)c1ccccc1OC [RU-0037003] | – | – | – | – | < 25% | – | > 75% | < 100 nM | < 25%
17 | COc1ccc(-n2c(Cc3ccccc3)nnc2SCCCC(=O)N2CCN(C(=O)c3ccc(C(F)(F)F)cc3)C(C)C2)cc1 (centres unmarked) [RU-0071828] | – | – | – | – | 26 to 50% | > 1000 nM | > 75% | < 100 nM | < 25%

Row | SMILES | inhibition at 4 µM (OR10/OR7) | IC50 (OR28/OR7) | inhibition at 4 µM (OR28/OR7) | inhibition at 4 µM (TRP channel (TRPM8)) | inhibition at 4 µM (OR10/OR7; compound applied at 4 μM) | IC50 (OR10/OR7) | inhibition at 4 µM (OR28/OR7; compound applied at 4 μM) | IC50 (OR28/OR7; Table B, read-out: IC50 OR28) | inhibition at 4 µM (TRP channel (TRPM8); compound applied at 4 μM)
18 | C=CCOc1cccc(C(=O)N2CCCC(C(=O)c3ccccc3OC)C2)c1 (centres unmarked) [RU-0029409] | – | – | – | – | 26 to 50% | – | > 75% | < 100 nM | 26 to 50%
19 | CCCCCCCC(=O)N1CCCC(C(=O)NC2CCCC[C@H]2NC(=O)c2ccccc2C)C1 (some centres unmarked) [RU-0045756] | – | – | – | – | < 25% | – | 51 to 74% | > 1000 nM | < 25%
20 | C=CCN(Cc1nccn1Cc1ccccc1F)C(=O)C1CCCC1 [RU-0058964] | – | – | – | – | > 75% | < 100 nM | > 75% | < 100 nM | 26 to 50%
21 | Cc1ccc(-c2nnc(SCCCC(=O)N3CCN(C(=O)c4cccc(F)c4)C(C)C3)n2-c2ccc(C)cc2)cc1 (centres unmarked) [RU-0071789] | – | – | – | – | > 75% | < 100 nM | > 75% | < 100 nM | < 25%
22 | COc1ccccc1CC(=O)N1CCOC(COc2ccc(C)cc2)C1 (centres unmarked) [RU-0050390] | – | – | – | – | < 25% | – | > 75% | < 100 nM | < 25%
23 | CCN(CC)c1onc(-c2ccccc2)c1CN(CC1CCCO1)C(=O)c1ccco1 (centres unmarked) [RU-0036855] | – | – | – | – | < 25% | – | > 75% | < 100 nM | 26 to 50%
24 | Cc1cccc(NC(=O)CCC2CCN(C(=O)CCOc3ccccc3)CC2)c1 [RU-0030324] | – | – | – | – | 26 to 50% | – | > 75% | < 100 nM | 26 to 50%
25 | c1ccc(CNc2nc(NCc3ccco3)nc(N3CCOCC3)n2)cc1 [RU-0020050] | – | – | – | – | < 25% | – | > 75% | 100 to 1000 nM | 26 to 50%
26 | O=C(C1CCC1)N(Cc1ccco1)Cc1nccn1Cc1ccccc1Cl [RU-0048066] | – | – | – | – | 51 to 74% | < 100 nM | > 75% | < 100 nM | < 25%
27 | COCCNC(=O)c1ccc(CSc2nnc(-c3ccc(C)cc3)n2-c2ccccc2C)cc1 [RU-0053556] | – | – | – | – | 51 to 74% | > 1000 nM | > 75% | 100 to 1000 nM | 26 to 50%
28 | O=C(NCCC(=O)N1CCOC(COCc2ccc(F)cc2Cl)C1)OCc1ccccc1 (centres unmarked) [RU-0050344] | – | – | – | – | 26 to 50% | – | > 75% | < 100 nM | < 25%
29 | CC(=O)OCC(=O)NCC1Cc2cc(Oc3ccccc3)ccc2O1 (centres unmarked) [RU-0079120] | – | – | – | – | > 75% | < 100 nM | > 75% | < 100 nM | < 25%
30 | CCNc1nc(NC(C)C)nc(N(C#N)Cc2ccccc2)n1 [RU-0015806] | – | – | – | – | 26 to 50% | > 1000 nM | > 75% | < 100 nM | 26 to 50%
31 | Cc1c(C(=O)NCc2ccco2)cnn1-c1ccccc1 [RU-0047765] | – | – | – | – | 51 to 74% | < 100 nM | > 75% | < 100 nM | 26 to 50%
32 | Cc1ccccc1C(=O)N[C@@H]1CCCCC1NC(=O)C1CCN(C(=O)C23CC4CC(CC(C4)C2)C3)CC1 (some centres unmarked) [RU-0045351] | – | – | – | – | < 25% | – | > 75% | < 100 nM | < 25%
33 | COc1ccccc1CCC(=O)N1CCC(CCC(=O)Nc2ccccc2)CC1 [RU-0032455] | – | – | – | – | < 25% | – | > 75% | < 100 nM | < 25%
